Patent US9249129B2, “Morpholino substituted urea derivatives as mTOR inhibitors” (CELLZOME LIMITED, priority 2010, dated 2016)
Read-outs that look alike come from different tables or passages of the source.

How the values were obtained:
Format in all cases: binding
PI3Kα = molecular target: T1, PI3Kα (Homo sapiens, UniProt P42336); experiment: kinobeads assay, PI3K alpha (dot blot detection); settings: Table 4, read-out: Inhibition values (IC50) PI3Ka
T1 construct: endogenous in cells; host or cells: Jurkat cells (ATCC TIB-152) lysate, the only lysate described

mTOR = molecular target: T2, mTOR (Homo sapiens, UniProt P42345); experiment: mTOR kinobeads assay (dot blot detection)
T2 construct: endogenous in cells; host or cells: Jurkat cells (ATCC TIB-152, clone E6-1), lysate
Procedure, shortened: (§1)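 Jurkat cell lysate (5 mg/ml protein) was incubated with test compounds and kinobeads (immobilized phenylthiazole and phenylmorpholin-chromen ligands) for 2 h in the cold with shaking. Bead-bound kinase was SDS-eluted and quantified by antibody dot blot with infrared detection. IC50 values came from dose-response curves.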

PI3K delta (PI3Kd) = molecular target: T3, PI3K delta (PI3Kd) (Homo sapiens, UniProt O00329); experiment: kinobeads assay, PI3K delta (dot blot detection)
T3 construct: endogenous in cells; host or cells: Jurkat cells (ATCC TIB-152, clone E6-1), lysate
Procedure, shortened: as §1

kinases (kinome) [1] = molecular target: T4, kinases (kinome) (Homo sapiens, UniProt Q6PHR2); experiment: kinobeads assay with mass spectrometry detection of kinases (kinase selectivity profile); settings: ULK3 (Other), IPI00910978
T4 construct: determined in kinobeads assays with mass spectrometry detection of kinases as described previously; endogenous in cells; host or cells: cell lysate
T4 sequence (Q6PHR2 1-472): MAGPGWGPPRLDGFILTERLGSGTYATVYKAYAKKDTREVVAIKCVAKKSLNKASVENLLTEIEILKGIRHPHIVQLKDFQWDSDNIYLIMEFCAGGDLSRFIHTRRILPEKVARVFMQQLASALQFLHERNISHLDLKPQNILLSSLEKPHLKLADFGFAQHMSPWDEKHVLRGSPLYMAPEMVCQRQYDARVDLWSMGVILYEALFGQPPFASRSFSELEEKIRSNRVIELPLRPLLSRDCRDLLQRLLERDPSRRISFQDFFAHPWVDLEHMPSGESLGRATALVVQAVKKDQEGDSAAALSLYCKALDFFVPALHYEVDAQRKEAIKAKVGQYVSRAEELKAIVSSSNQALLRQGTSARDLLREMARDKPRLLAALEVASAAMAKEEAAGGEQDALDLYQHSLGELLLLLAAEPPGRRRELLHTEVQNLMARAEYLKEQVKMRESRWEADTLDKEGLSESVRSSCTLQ
Excerpt: (§2) The protein kinase complement of the human genome (the kinome) was described previously (Manning et al., 2002. Science 298(5600):1912-1934). Sequence accession numbers are defined by the International Protein Index (IPI) (Kersey et al., 2004. Proteomics 4(7):1985-1988).

kinases (kinome) [2] = molecular target: T5, kinases (kinome) (Homo sapiens, UniProt P41240); experiment: as above; settings: CSK (TK), IPI00013212
T5 construct: determined in kinobeads assays with mass spectrometry detection of kinases as described previously; endogenous in cells; host or cells: cell lysate
Excerpt: as §2

kinases (kinome) [3] = molecular target: kinases (kinome) (Homo sapiens, UniProt Q15418); experiment: as above; settings: RSK3 (AGC), IPI00477982
Excerpt: as §2

PI3Kγ = molecular target: T6, PI3Kγ (Homo sapiens, UniProt P48736); experiment: kinobeads assay, PI3K gamma (dot blot detection); settings: Table 4, read-out: Inhibition values (IC50) PI3Kg
T6 construct: endogenous in cells; host or cells: Jurkat cells (ATCC TIB-152) lysate, the only lysate described

[4] = Table 2, Jurkat cell lysate, read-out: Inhibition values (IC50) mTor
[5] = Table 4, read-out: Inhibition values (IC50) mTOR
[6] = Table 2, Jurkat cell lysate, read-out: Inhibition values (IC50) PI3Kd
[7] = Table 4, read-out: Inhibition values (IC50) PI3Kd

T1 sequence (P42336 whole entry): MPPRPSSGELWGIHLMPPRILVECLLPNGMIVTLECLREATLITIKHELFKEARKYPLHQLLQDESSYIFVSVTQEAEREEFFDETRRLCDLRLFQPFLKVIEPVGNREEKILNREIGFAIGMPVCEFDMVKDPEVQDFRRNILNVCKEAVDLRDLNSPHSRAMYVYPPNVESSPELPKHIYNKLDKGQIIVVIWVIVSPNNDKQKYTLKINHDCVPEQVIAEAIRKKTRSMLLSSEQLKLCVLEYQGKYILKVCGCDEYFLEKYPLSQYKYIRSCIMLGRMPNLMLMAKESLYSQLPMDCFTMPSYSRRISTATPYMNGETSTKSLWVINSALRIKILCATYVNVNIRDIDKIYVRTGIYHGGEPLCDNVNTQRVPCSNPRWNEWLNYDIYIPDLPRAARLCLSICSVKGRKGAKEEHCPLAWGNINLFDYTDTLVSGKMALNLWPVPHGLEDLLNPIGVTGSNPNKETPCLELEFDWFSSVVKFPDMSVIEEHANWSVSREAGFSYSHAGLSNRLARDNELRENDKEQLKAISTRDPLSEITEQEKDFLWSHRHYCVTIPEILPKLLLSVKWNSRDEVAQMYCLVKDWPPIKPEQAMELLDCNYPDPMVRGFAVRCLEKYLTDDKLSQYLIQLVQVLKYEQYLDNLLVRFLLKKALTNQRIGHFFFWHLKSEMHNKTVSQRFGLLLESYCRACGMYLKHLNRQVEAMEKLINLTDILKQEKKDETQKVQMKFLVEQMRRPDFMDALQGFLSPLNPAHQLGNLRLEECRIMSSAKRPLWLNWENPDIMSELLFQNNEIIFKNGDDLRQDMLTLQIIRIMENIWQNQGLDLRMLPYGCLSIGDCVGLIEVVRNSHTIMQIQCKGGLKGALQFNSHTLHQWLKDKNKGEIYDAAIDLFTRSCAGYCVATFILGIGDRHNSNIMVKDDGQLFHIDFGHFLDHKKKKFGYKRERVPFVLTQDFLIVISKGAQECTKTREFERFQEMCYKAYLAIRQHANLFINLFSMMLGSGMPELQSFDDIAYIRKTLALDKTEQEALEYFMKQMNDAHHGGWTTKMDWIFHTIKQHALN
T1 sequence (P27986 whole entry partner): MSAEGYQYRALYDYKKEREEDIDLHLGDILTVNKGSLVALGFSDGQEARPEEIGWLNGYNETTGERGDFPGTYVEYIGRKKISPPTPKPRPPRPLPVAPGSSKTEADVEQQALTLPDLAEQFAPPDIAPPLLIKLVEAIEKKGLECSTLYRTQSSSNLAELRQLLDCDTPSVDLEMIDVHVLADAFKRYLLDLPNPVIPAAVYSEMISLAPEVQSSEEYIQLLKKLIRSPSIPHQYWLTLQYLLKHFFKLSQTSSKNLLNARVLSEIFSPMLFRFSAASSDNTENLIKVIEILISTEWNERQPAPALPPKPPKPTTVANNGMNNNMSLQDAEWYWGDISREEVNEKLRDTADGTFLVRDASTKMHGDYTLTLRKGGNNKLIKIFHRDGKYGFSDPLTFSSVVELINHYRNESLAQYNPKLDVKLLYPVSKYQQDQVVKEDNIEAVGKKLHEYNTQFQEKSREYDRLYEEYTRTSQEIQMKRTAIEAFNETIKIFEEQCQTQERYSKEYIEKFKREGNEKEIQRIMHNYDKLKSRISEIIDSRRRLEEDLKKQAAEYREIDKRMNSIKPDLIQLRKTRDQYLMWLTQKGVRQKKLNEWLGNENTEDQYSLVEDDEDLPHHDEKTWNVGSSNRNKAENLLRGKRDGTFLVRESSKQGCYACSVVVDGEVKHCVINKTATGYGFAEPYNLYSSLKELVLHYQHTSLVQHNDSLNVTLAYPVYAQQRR
T3 sequence (O00329 whole entry): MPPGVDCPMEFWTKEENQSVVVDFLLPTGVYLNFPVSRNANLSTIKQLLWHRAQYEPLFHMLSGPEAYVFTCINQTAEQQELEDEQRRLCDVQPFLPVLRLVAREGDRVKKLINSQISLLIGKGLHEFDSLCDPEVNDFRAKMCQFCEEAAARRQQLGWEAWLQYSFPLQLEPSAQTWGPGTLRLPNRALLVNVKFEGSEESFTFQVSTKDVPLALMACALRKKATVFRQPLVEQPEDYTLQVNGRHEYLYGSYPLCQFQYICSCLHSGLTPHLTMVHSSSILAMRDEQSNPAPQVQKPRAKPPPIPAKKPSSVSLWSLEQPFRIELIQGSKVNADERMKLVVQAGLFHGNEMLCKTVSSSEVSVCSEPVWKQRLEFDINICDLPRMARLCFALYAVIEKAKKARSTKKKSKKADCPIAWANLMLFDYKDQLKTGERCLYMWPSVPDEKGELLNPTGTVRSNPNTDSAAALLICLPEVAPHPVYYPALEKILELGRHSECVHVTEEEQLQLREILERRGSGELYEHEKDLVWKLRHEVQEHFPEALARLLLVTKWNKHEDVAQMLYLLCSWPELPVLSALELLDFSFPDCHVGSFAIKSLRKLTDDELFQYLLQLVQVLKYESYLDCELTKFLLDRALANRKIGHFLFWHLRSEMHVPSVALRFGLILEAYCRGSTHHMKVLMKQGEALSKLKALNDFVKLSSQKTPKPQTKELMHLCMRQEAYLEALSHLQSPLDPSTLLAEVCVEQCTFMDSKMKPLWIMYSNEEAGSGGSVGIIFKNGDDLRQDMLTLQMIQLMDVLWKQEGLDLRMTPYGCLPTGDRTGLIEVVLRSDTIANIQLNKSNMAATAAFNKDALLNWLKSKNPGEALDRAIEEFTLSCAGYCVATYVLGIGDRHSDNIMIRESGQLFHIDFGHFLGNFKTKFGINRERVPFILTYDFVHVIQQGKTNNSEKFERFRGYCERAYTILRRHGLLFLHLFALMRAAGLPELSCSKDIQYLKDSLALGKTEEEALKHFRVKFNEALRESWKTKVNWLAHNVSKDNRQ
T3 sequence (P27986 whole entry partner): as the sequence (P27986 whole entry partner) above
Sequence of kinases (kinome) (Homo sapiens, UniProt Q15418) (Q15418 whole entry): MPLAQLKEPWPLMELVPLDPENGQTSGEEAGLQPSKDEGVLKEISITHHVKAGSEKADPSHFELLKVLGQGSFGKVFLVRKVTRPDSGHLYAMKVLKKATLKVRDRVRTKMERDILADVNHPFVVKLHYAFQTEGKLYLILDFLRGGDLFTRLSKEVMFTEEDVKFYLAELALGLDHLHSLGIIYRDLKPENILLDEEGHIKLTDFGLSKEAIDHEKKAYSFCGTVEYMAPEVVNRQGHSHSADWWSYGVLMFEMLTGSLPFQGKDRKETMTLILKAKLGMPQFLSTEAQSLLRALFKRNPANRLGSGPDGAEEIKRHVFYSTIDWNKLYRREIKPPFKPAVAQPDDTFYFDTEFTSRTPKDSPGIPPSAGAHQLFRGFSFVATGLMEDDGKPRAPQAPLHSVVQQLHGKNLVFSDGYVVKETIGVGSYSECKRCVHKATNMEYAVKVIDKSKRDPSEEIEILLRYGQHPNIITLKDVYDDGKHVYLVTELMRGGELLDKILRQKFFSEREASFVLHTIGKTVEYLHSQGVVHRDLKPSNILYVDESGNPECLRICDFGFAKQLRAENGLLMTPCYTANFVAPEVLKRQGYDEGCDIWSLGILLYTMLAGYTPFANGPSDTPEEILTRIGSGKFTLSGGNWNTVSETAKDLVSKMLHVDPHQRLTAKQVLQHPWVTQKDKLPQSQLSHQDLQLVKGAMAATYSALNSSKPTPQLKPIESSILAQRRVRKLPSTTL
T6 sequence (P48736 whole entry): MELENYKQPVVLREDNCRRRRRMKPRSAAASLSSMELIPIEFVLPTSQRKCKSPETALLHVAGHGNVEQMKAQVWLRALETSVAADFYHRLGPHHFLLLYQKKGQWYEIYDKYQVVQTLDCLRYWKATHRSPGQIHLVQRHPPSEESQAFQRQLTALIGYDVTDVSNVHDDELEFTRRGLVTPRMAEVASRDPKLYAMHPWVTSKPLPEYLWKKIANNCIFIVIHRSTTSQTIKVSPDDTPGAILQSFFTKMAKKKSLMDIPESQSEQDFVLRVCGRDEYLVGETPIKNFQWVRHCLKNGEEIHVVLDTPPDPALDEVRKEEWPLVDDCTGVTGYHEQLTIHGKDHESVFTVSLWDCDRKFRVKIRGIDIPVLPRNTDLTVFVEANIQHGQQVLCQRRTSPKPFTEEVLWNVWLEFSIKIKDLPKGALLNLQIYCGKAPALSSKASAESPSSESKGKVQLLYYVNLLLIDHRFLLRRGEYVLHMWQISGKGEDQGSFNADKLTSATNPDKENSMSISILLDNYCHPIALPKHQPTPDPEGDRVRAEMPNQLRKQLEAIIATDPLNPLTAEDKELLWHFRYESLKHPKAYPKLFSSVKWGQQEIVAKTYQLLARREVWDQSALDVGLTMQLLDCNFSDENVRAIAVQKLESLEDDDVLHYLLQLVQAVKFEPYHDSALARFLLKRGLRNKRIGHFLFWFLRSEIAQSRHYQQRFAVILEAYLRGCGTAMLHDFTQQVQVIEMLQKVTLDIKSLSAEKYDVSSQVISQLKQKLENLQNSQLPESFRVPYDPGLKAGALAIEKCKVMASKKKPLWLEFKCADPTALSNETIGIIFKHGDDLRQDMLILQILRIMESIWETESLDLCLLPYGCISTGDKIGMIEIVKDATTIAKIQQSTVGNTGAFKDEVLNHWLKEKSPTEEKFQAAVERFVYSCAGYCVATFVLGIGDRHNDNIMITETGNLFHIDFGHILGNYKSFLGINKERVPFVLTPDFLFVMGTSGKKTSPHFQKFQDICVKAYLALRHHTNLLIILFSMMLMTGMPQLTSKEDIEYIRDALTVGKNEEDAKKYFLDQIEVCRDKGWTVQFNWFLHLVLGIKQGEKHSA

SMILES | IC50 (PI3Kα) [µM] | IC50 (mTOR; [4]) [µM] | IC50 (mTOR; [5]) [µM] | IC50 (PI3K delta (PI3Kd); [6]) [µM] | IC50 (PI3K delta (PI3Kd); [7]) [µM] | IC50 (kinases (kinome) [1]) [µM] | IC50 (kinases (kinome) [2]) [µM] | IC50 (kinases (kinome) [3]) [µM] | IC50 (PI3Kγ) [µM]
C[C@H]1COCCN1c1cc(-c2cncc(F)c2)nc(-c2ccc(NC(=O)NC3CC3)cc2)n1 [Example 23, (S)-1-cyclopropyl-3-(4-(4-(5-fluoropyridin-3-yl)-6-(3-methylmorpholino)pyrimidin-2-yl)phenyl)urea] | ≥ 10 | 0.1 to 1 | 0.1 to 1 | ≥ 10 | ≥ 10 | – | – | – | ≥ 10
C[C@H]1COCCN1c1nc(-c2ccc(NC(=O)NC3CC3)cc2)cc(-c2ccccc2S(C)(=O)=O)n1 [Example 4, (S)-1-cyclopropyl-3-(4-(2-(3-methylmorpholino)-6-(2-(methylsulfonyl)phenyl)pyrimidin-4-yl)phenyl)urea] | ≥ 10 | 0.1 to 1 | 0.1 to 1 | ≥ 10 | ≥ 10 | > 10 | > 10 | > 10 | ≥ 10
C[C@H]1COCCN1c1cc(-c2ccccn2)nc(-c2ccc(NC(=O)NC3CC3)cc2)n1 [Example 42, (S)-1-cyclopropyl-3-(4-(4-(3-methylmorpholino)-6-(pyridin-2-yl)pyrimidin-2-yl)phenyl)urea] | ≥ 10 | 0.1 to 1 | 0.1 to 1 | ≥ 10 | ≥ 10 | – | – | – | ≥ 10
C[C@H]1COCCN1c1nc(-c2ccc(NC(=O)NC3CC3)cc2)cc(-c2cc(F)ccc2S(C)(=O)=O)n1 [Example 40, (S)-1-cyclopropyl-3-(4-(6-(5-fluoro-2-(methylsulfonyl)phenyl)-2-(3-methylmorpholino)pyrimidin-4-yl)phenyl)urea] | ≥ 10 | 0.1 to 1 | 0.1 to 1 | ≥ 10 | ≥ 10 | > 10 | > 10 | > 10 | ≥ 10
C[C@H]1COCCN1c1cc(-c2ccc(F)nc2)nc(-c2ccc(NC(=O)NC3CC3)cc2)n1 [Example 21, (S)-1-cyclopropyl-3-(4-(4-(6-fluoropyridin-3-yl)-6-(3-methylmorpholino)pyrimidin-2-yl)phenyl)urea] | ≥ 10 | 0.1 to 1 | 0.1 to 1 | ≥ 10 | ≥ 10 | – | – | – | ≥ 10
C[C@H]1COCCN1c1nc(-c2ccc(NC(=O)NCCO)cc2)cc(-c2cc(F)ccc2S(C)(=O)=O)n1 [Example 41, (S)-1-(4-(6-(5-fluoro-2-(methylsulfonyl)phenyl)-2-(3-methylmorpholino)pyrimidin-4-yl)phenyl)-3-(2-hydroxyethyl)urea] | ≥ 10 | < 0.1 | < 0.1 | ≥ 10 | ≥ 10 | – | – | – | ≥ 10
C[C@H]1COCCN1c1cc(-c2ccccc2S(C)(=O)=O)nc(-c2ccc(NC(=O)NC3CC3)cc2)n1 [Example 6, (S)-1-cyclopropyl-3-(4-(4-(3-methylmorpholino)-6-(2-(methylsulfonyl)phenyl)pyrimidin-2-yl)phenyl)urea] | ≥ 10 | 0.1 to 1 | 0.1 to 1 | ≥ 10 | ≥ 10 | > 10 | > 10 | > 10 | ≥ 10
CCNC(=O)Nc1ccc(-c2cc(-c3cc(F)ccc3S(C)(=O)=O)nc(N3CCOC[C@@H]3C)n2)cc1 [Example 2, (S)-1-ethyl-3-(4-(6-(5-fluoro-2-(methylsulfonyl)phenyl)-2-(3-methylmorpholino)pyrimidin-4-yl)phenyl)urea] | ≥ 10 | 0.1 to 1 | 0.1 to 1 | ≥ 10 | ≥ 10 | – | – | – | ≥ 10
CCNC(=O)Nc1ccc(-c2cc(-c3ccccc3C#N)nc(N3CCOC[C@@H]3C)n2)cc1 [Example 8, (S)-1-(4-(6-(2-cyanophenyl)-2-(3-methylmorpholino)pyrimidin-4-yl)phenyl)-3-ethylurea] | – | 1 to 10 | 1 to 10 | ≥ 10 | ≥ 10 | > 10 | > 10 | > 10 | –

Next, values leading:

IC50 (PI3Kα) [µM] | IC50 (mTOR; [4]) [µM] | IC50 (mTOR; [5]) [µM] | IC50 (PI3K delta (PI3Kd); [6]) [µM] | IC50 (PI3K delta (PI3Kd); [7]) [µM] | IC50 (kinases (kinome) [1]) [µM] | IC50 (kinases (kinome) [2]) [µM] | IC50 (kinases (kinome) [3]) [µM] | IC50 (PI3Kγ) [µM] | SMILES
≥ 10 | 0.1 to 1 | 0.1 to 1 | ≥ 10 | ≥ 10 | > 10 | > 10 | > 10 | ≥ 10 | C[C@H]1COCCN1c1nc(-c2ccc(NC(=O)NC3CC3)cc2)cc(-c2cccnc2S(C)(=O)=O)n1 [Example 46, (S)-1-cyclopropyl-3-(4-(2-(3-methylmorpholino)-6-(2-(methylsulfonyl)pyridin-3-yl)pyrimidin-4-yl)phenyl)urea]
≥ 10 | – | 0.1 to 1 | – | ≥ 10 | > 10 | > 10 | > 10 | ≥ 10 | C[C@H]1COCCN1c1nc(-c2ccc(NC(=O)N[C@H]3CCC[C@@H]3O)cc2)cc(-c2cc(F)ccc2S(C)(=O)=O)n1 [Example 76, 1-(4-(6-(5-fluoro-2-(methylsulfonyl)phenyl)-2-((S)-3-methylmorpholino)pyrimidin-4-yl)phenyl)-3-((1S,2S)-2-hydroxycyclopentyl)urea]
≥ 10 | 0.1 to 1 | 0.1 to 1 | ≥ 10 | ≥ 10 | – | – | – | ≥ 10 | C[C@H]1COCCN1c1nc(-c2ccc(NC(=O)NCCCO)cc2)cc(-c2cc(F)ccc2S(C)(=O)=O)n1 [Example 64, (S)-1-(4-(6-(5-fluoro-2-(methylsulfonyl)phenyl)-2-(3-methylmorpholino)pyrimidin-4-yl)phenyl)-3-(3-hydroxypropyl)urea]
≥ 10 | 0.1 to 1 | 0.1 to 1 | ≥ 10 | ≥ 10 | – | – | – | ≥ 10 | C[C@H]1COCCN1c1nc(-c2ccc(NC(=O)NCC(F)F)cc2)cc(-c2cc(F)ccc2S(C)(=O)=O)n1 [Example 47, (S)-1-(2,2-difluoroethyl)-3-(4-(6-(5-fluoro-2-(methylsulfonyl)phenyl)-2-(3-methylmorpholino)pyrimidin-4-yl)phenyl)urea]
≥ 10 | 0.1 to 1 | 0.1 to 1 | ≥ 10 | ≥ 10 | > 10 | > 10 | > 10 | ≥ 10 | C[C@H]1COCCN1c1cc(-c2ccccn2)nc(-c2ccc(NC(=O)NCCO)cc2)n1 [Example 43, (S)-1-(2-hydroxyethyl)-3-(4-(4-(3-methylmorpholino)-6-(pyridin-2-yl)pyrimidin-2-yl)phenyl)urea]
≥ 10 | 0.1 to 1 | 0.1 to 1 | ≥ 10 | ≥ 10 | – | – | – | ≥ 10 | CS(=O)(=O)c1ccc(F)cc1-c1cc(-c2ccc(NC(=O)NCCO)cc2)nc(N2CCOCC2)n1 [Example 62, 1-(4-(6-(5-fluoro-2-(methylsulfonyl)phenyl)-2-morpholinopyrimidin-4-yl)phenyl)-3-(2-hydroxyethyl)urea]
≥ 10 | 0.1 to 1 | 0.1 to 1 | ≥ 10 | ≥ 10 | – | – | – | ≥ 10 | O=C(Nc1ccncc1)Nc1ccc(-c2nccc(N3CC4CCC(C3)O4)n2)cc1 [Example 61, 1-(4-(4-(8-oxa-3-azabicyclo[3.2.1]octan-3-yl)pyrimidin-2-yl)phenyl)-3-(pyridin-4-yl)urea]
≥ 10 | 0.1 to 1 | 0.1 to 1 | ≥ 10 | ≥ 10 | – | – | – | ≥ 10 | C[C@H]1COCCN1c1nc(-c2ccc(NC(=O)NCCF)cc2)cc(-c2cc(F)ccc2S(C)(=O)=O)n1 [Example 44, (S)-1-(4-(6-(5-fluoro-2-(methylsulfonyl)phenyl)-2-(3-methylmorpholino)pyrimidin-4-yl)phenyl)-3-(2-fluoroethyl)urea]
≥ 10 | 0.1 to 1 | 0.1 to 1 | ≥ 10 | ≥ 10 | – | – | – | ≥ 10 | C[C@H]1COCCN1c1ccnc(-c2ccc(NC(=O)Nc3ccncc3)cc2)n1 [Example 60, (S)-1-(4-(4-(3-methylmorpholino)pyrimidin-2-yl)phenyl)-3-(pyridin-4-yl)urea]
